Reference: patent US20110152341A1, “CLEAVAGE OF B-AMYLOID PRECURSOR PROTEIN” (PROBIODRUG AG, priority 2009, published 2011)

Tested on: human meprin-β (hMPβ) and human APP in HEK293 cells
Experiment: Aβ secreted by HEK293 cells after transient overexpression of human meprin-β and human APP, ELISA
Type: cell-based
Conditions: 20 μM actinonin (1% DMSO), 24 h, HEK293, ELISA (IBL) with antibody 6E10
Protocol: The sequence of human APP was cloned into the vector pcDNA3.1 (Invitrogen) and various mutations were inserted. The resulting clones were named pcDNA-hAPP (for wildtyp APP), pcDNA-hAPPsw (for mutation K595N, M596L) and pcDNA-hAPP/E3Q (for mutation E599Q). For transient overexpression of human meprin and human APP the cells were cultured in 6-well dishes until 90% confluence, transfected with 2 μg of vector with meprin and 2 μg of one of the described APP-vectors per well using Lipofectamin2000 (Invitrogen) according to manufacturer's manual. Control samples were transfected with pcDNA3.1. After 24 h the solution was replaced by medium free of serum and phenolred. Medium was collected 24 h later and supplemented with a protease inhibitor cocktail (complete, Mini, Roche), centrifuged at 500×g and 10 000×g, subsequently to remove cells and debris. The supernatant was stored at −80 until analysis by ELISA (IBL) and urea western-blot for identification of liberated Aβ species.
24 h after co-transfection of HEK293 cells with human APP and meprin (as described for example 4) the medium was replaced by medium free of serum and phenolred supplemented with 20 μM Actinonin (1% DMSO). 24 hours later medium was collected, supplemented with inhibitor cocktail (complete, Mini, Roche), centrifuged at 500×g and 10 000×g, subsequently to remove cells and debris. […]

## CCCCC[C@H](CC(=O)NO)C(=O)N[C@H](C(=O)N1CCC[C@H]1CO)C(C)C [Actinonin]
  Effect on the increase of Aβ secretion after overexpression of hAPP and hMPβ: reduced to almost the basal level
